Where two headings read alike, the source gives them in different places.
Experiments:
[1] = test system: STZ diabetic rats; test: Determination of blood glucose effect in streptozotocin-treated diabetic rats (Study A); assay type: in vivo, rat (male Sprague Dawley); details: oral 0.1 mg/kg
Description: I. Protocol for Study A: Determination of Blood Glucose Effect in Streptozotocin-Treated Diabetic Rats
The following analysis was utilized to reasonably predict the impact on plasma glucose for the compounds analyzed in the matrix above.
Male Sprague Dawley rats (Charles River) weighing 250-275 g were made diabetic by a single intraperitoneal injection of streptozotocin (Sigma) at 65 mg/kg, prepared in fresh cold (4° C.) 0.01 M citrate buffer. Four days later, animals were bled in the fed state. Whole blood was collected via the tail tip and analyzed for glucose by the glucose oxidation method with a Glucometer Elite (Bayer). Mean blood glucose levels ranged from 450-550 mg/dl.
On the day of the experiment, the compound was dissolved in the vehicle comprised of 5% m-Pyrol, 20% PEG 400 and 20 mM Sodium Diphosphate. Rats were weighed, randomized into 4 groups with 6 rats in each group, and dosed orally with the vehicle or 0.1 mg/kg of the compound. The total volume for oral gavage was 1 ml/kg body weight. After dosing, the food was removed from the cages and the rats had access to water ad lib during the experiment. Blood samples were obtained from the tail tip at 0, 30, 60, 120, 180, 240 and 300 minutes following drug administration. Blood glucose was analyzed by the glucose oxidation method with a Glucometer Elite (Bayer).
A. Statistical Data Analysis
The calculation of mean blood glucose values and percent changes vs. vehicle at each time point were performed using Microsoft Excel. Statistical analyses (T tests, or ANOVA followed by Fisher's test) comparing drug-treated groups vs. vehicle controls) were performed using Microsoft Excel or the statistical program StatView. A p value of less that 0.05 was considered to be statistically significant.

[2] = Stability in presence of commonly used solid excipients under accelerated aging conditions (Study B); assay type: physicochemical; details: for Stability in a prototypical formulation: drug-excipient blends, accelerated aging conditions, 1 and 3 weeks, HPLC analysis
From the text: II. Protocol for Study B: Stability Determination of Oxidatively Labile Therapeutic Agent in Presence of Commonly Used Solid Excipients, Under Accelerated Aging Conditions
The following procedure was utilized to access the chemical stability of the compound 3 in the presence of commonly used excipients and typical antioxidants.
The drug substance was triturated in a mortar pestle with the respective antioxidant, and then mixed in the dry state with other excipients listed in the following table. Sodium metabisulfite and butylated hydroxyl anisole (BHA) were used as antioxidants in this study. BHA was used at two levels, 0.01% w/w and 0.5% w/w, and sodium metabisulfite was used at 0.01% w/w. For samples stored at 40° C./[…] and HIL/uv, oxygen gas was purged into the vials and they were tightly capped. The drug-excipient blends (A-D) were placed under the different accelerated aging conditions listed within the second table for 1 and 3 weeks prior to HPLC analysis.

[3] = test system: Chinese hamster ovary (CHO) cells
From the text: (§1) The following protocol was utilized to predict the in vitro clastogenicity activity of compounds of therapeutic interest.
(§2) Clastogenicity was predicted by determining the potential of compounds of interest to induce structural chromosome damage in Chinese hamster ovary (CHO) cells.
(§3) The vehicle control is dimethyl sulfoxide (DMSO). The positive controls were Mitomycin C for the 3-hr and 20-hr exposure without S9 activation and cyclophosphamide for the 3-hr exposure with S9 rat-liver enzymes. Both Mitomycin C and cyclophosphamide were diluted with sterile water.
(§4) Two stock solutions in DMSO of the compound of interest were prepared—one being a high concentration, the other low. Aliquots of the vehicle control, low and high dosing solutions were collected following treatment of the CHO cells and subsequently analyzed to determine the concentration of the compound of interest. […] Once the upper limit of solubility of the compound of interest was determined in DMSO, that DMSO solution is added to culture medium to determine effects on pH or osmmolality. […]
(§5) The DMSO stock solution of the compound of interest was 100× concentration of the highest test-article concentration to be used in the full assay. […] The cytotoxicity dose response observed in the range finding study determined the serial dilution factor for the five lower doses. […]

[4] = test system: Chinese hamster ovary (CHO) cells; test: Cytogenetics study in Chinese hamster ovary cells, in vitro clastogenicity / chromosome aberration (Study C); details: 3 hr with/without S9, 20 hr without S9
From the text: as §1, §2, §3, §4, §5

CSc1ccc(Cc2cc([C@@H]3O[C@H](CO)[C@@H](O)[C@H](O)[C@H]3O)ccc2C)cc1 [Compound 3]
% Decrease of plasma glucose in STZ diabetic rats at 5 hr after an oral dose of 0.1 mg/kg vs. vehicle treated controls [1]: 59% | Stability in a prototypical formulation [2]: No

CCc1ccc(Cc2cccc([C@@H]3O[C@H](CO)[C@@H](O)[C@H](O)[C@H]3O)c2)cc1 [Compound 5]
In vitro clastogenic activity [3]: Yes | % Decrease of plasma glucose in STZ diabetic rats at 5 hr after an oral dose of 0.1 mg/kg vs. vehicle treated controls [1]: 34% | Stability in a prototypical formulation [2]: Yes | Chemical stability in the presence of excipients commonly used in solid dosage forms [2]: chemically stable

CCc1ccc(Cc2cc([C@@H]3O[C@H](CO)[C@@H](O)[C@H](O)[C@H]3O)ccc2Cl)cc1 [Compound 1]
% Decrease of plasma glucose in STZ diabetic rats at 5 hr after an oral dose of 0.1 mg/kg vs. vehicle treated controls [1]: 62% | Stability in a prototypical formulation [2]: Yes | Chemical stability in the presence of excipients commonly used in solid dosage forms [2]: chemically stable

CCOc1ccc(Cc2cc([C@@H]3O[C@H](CO)[C@@H](O)[C@H](O)[C@H]3O)ccc2Cl)cc1 [Compound 4]
In vitro clastogenic activity [4]: Yes | % Decrease of plasma glucose in STZ diabetic rats at 5 hr after an oral dose of 0.1 mg/kg vs. vehicle treated controls [1]: 60% | Stability in a prototypical formulation [2]: Yes | Chemical stability in the presence of excipients commonly used in solid dosage forms [2]: chemically stable

— patent publication US7589193B2, “C-aryl glucoside SGLT2 inhibitors and method” (Bristol-Myers Squibb Company, priority 2004, dated 2009)
